Experimental data as given in ChEMBL document CHEMBL5728348, “1 H-pyrazol-1-yl-thiazoles as inhibitors of lactate dehydrogenase and methods of use thereof” (2021).

Test: Biochemical Assay: Test compounds were placed in a Greiner Bio-One (Monroe, N.C.) 1536-well black solid bottom assay plate. 200 millimolar (mM) Tris HCl, pH 7.4, 100 micromolar (μM) EDTA and 0.01% TWEEN-20, final concentration, was used as the assay buffer. The LDHA reagent was 2 nanomolar (nM) Human LDHA (Meridian Life Science, Inc., Memphis, Tenn.), final concentration, in assay buffer. The substrate reagent was 0.06 mM NADH and 0.2 mM sodium pyruvate, final concentration, in assay buffer. The resazurin/diaphorase coupling reagent was 0.037 mM resazurin and 0.133 milligrams per milliliter (mg/mL) diaphorase, final concentration, in assay buffer. The inhibition of LDHA activity was measured by fluorescence emission.

Row | SMILES | IC50
1 | CC1CC=C(c2cc(-c3nn(-c4nc(C(=O)O)cs4)c(CC4CC4)c3Cc3ccc([SH+](N)[O-])c(F)c3)ccc2F)CC1 (configuration not stated) | < 100 nM
2 | COC1CC=C(c2cc(-c3nn(-c4nc(C(=O)O)cs4)c(CC4CC4)c3Cc3ccc([SH+](N)[O-])c(F)c3)ccc2F)CC1 (configuration not stated) | < 100 nM
3 | COc1ccc(-c2cc(-c3nn(-c4nc(C(=O)O)cs4)c(CC4CC4)c3Cc3ccc([SH+](N)[O-])c(F)c3)ccc2F)cc1C (configuration not stated) | < 100 nM
4 | Cc1ccc(C#Cc2cccc(-c3nn(-c4nc(C(=O)O)cs4)c(CCC4CC4)c3Cc3ccc([SH+](N)[O-])c(F)c3)c2)s1 (configuration not stated) | < 100 nM
5 | CC(C)(C)c1ccc(C#Cc2cc(-c3nn(-c4nc(C(=O)O)cs4)c(CC4CC4)c3Cc3ccc([SH+](N)[O-])c(F)c3)ccc2F)s1 (configuration not stated) | in the range around 550 nM
6 | Cc1ccc(C2CC2c2cccc(-c3nn(-c4nc(C(=O)O)cs4)c(CC4CC4)c3Cc3ccc([SH+](N)[O-])c(F)c3)c2)s1 (configuration not stated) | < 100 nM
7 | CC1CCCC=C1c1cc(-c2nn(-c3nc(C(=O)O)cs3)c(CC3CC3)c2Cc2ccc([SH+](N)[O-])c(F)c2)ccc1F (configuration not stated) | < 100 nM
8 | N[SH+]([O-])c1ccc(Cc2c(-c3cccc(C#Cc4ccc(C5CC5)s4)c3)nn(-c3nc(C(=O)O)cs3)c2CC2CC2)cc1F (configuration not stated) | in the range around 550 nM
9 | N[S+](=O)([O-])c1ccc(Cc2c(-c3ccc(F)c(C4=CCCCC4)c3)nn(-c3nc(C(=O)O)cs3)c2CC2CC2)cc1F | < 100 nM
10 | N[S+](=O)([O-])c1ccc(Cc2c(-c3ccc(F)c(C4=CCC5(CC4)CC5)c3)nn(-c3nc(C(=O)O)cs3)c2CC2CC2)cc1F | < 100 nM
11 | Cc1ccc(C#Cc2cccc(-c3nn(-c4nc(C(=O)O)cs4)c(CC4(C)CC4)c3Cc3ccc([SH+](N)[O-])c(F)c3)c2)s1 (configuration not stated) | < 100 nM
12 | N[S+](=O)([O-])c1ccc(Cc2c(-c3ccc(F)c(-c4cccc(Cl)c4)c3)nn(-c3nc(C(=O)O)cs3)c2CC2CC2)cc1F | < 100 nM
13 | CC(C)N1CC2(CN(c3cc(-c4nn(-c5nc(C(=O)O)cs5)c(CC5CC5)c4Cc4ccc([SH+](N)[O-])c(F)c4)ccc3F)C2)C1 (configuration not stated) | < 100 nM
14 | CC(=O)c1cc(-c2nn(-c3nc(C(=O)O)cs3)c(CC3CC3)c2Cc2ccc([SH+](N)[O-])c(F)c2)ccc1F (configuration not stated) | < 100 nM
15 | N[S+](=O)([O-])c1ccc(Cc2c(-c3ccc(F)c(-c4ccc5c(c4)CCCC5)c3)nn(-c3nc(C(=O)O)cs3)c2CC2CC2)cc1F | < 100 nM
16 | N[S+](=O)([O-])c1ccc(Cc2c(-c3ccc(F)c(-c4cc(F)cc(F)c4)c3)nn(-c3nc(C(=O)O)cs3)c2CC2CC2)cc1F | < 100 nM
17 | Cc1ccsc1C#Cc1cccc(-c2nn(-c3nc(C(=O)O)cs3)c(CC3CC3)c2Cc2ccc([SH+](N)[O-])c(F)c2)c1 (configuration not stated) | < 100 nM
18 | N[SH+]([O-])c1ccc(Cc2c(-c3cccc(C#Cc4ccc(C(F)F)s4)c3)nn(-c3nc(C(=O)O)cs3)c2CC2CC2)cc1F (configuration not stated) | < 100 nM
19 | Cc1ccc(-c2cc(-c3nn(-c4nc(C(=O)O)cs4)c(CC4CC4)c3Cc3ccc([SH+](N)[O-])c(F)c3)ccc2F)cc1F (configuration not stated) | < 100 nM
20 | N[S+](=O)([O-])c1ccc(Cc2c(-c3ccc(F)c(-c4ccc(Cl)c(F)c4)c3)nn(-c3nc(C(=O)O)cs3)c2CC2CC2)cc1F | < 100 nM
21 | N[SH+]([O-])c1ccc(Cc2c(-c3ccc(F)c(NC(=O)c4ccccc4)c3)nn(-c3nc(C(=O)O)cs3)c2CC2CC2)cc1F (configuration not stated) | < 100 nM
22 | N[S+](=O)([O-])c1ccc(Cc2c(-c3ccc(F)c(-c4ccc(C(F)(F)F)cc4)c3)nn(-c3nc(C(=O)O)cs3)c2CC2CC2)cc1F | < 100 nM
23 | Cc1ccc(C#Cc2cccc(-c3nn(-c4nc(C(=O)O)cs4)c(C4CC45CC5)c3Cc3ccc([SH+](N)[O-])c(F)c3)c2)s1 (configuration not stated) | < 100 nM
24 | Cc1cc(C)c(C#Cc2cccc(-c3nn(-c4nc(C(=O)O)cs4)c(CC4CC4)c3Cc3ccc([SH+](N)[O-])c(F)c3)c2)s1 (configuration not stated) | < 100 nM

Row | SMILES | IC50
25 | Cc1ccc(C#Cc2cccc(-c3nn(-c4nc(C(=O)O)cs4)c(CC4CC4)c3Cc3ccc([SH+](N)[O-])c(F)c3)c2)o1 (configuration not stated) | < 100 nM
26 | N[S+](=O)([O-])c1ccc(Cc2c(-c3ccc(F)c(-c4ccc5c(c4)CCC5)c3)nn(-c3nc(C(=O)O)cs3)c2CC2CC2)cc1F | < 100 nM
27 | Cc1ncc(C#Cc2cc(-c3nn(-c4nc(C(=O)O)cs4)c(CC4CC4)c3Cc3ccc([SH+](N)[O-])c(F)c3)ccc2F)s1 (configuration not stated) | < 100 nM
28 | CC1(C)CC=C(c2cc(-c3nn(-c4nc(C(=O)O)cs4)c(CC4CC4)c3Cc3ccc([SH+](N)[O-])c(F)c3)ccc2F)CC1 (configuration not stated) | < 100 nM
29 | N[SH+]([O-])c1ccc(Cc2c(-c3ccc(F)c(C4=CCCO4)c3)nn(-c3nc(C(=O)O)cs3)c2CC2CC2)cc1F (configuration not stated) | < 100 nM
30 | Cc1cnc(C#Cc2cc(-c3nn(-c4nc(C(=O)O)cs4)c(CC4CC4)c3Cc3ccc([SH+](N)[O-])c(F)c3)ccc2F)s1 (configuration not stated) | < 100 nM
31 | COc1cc(OC)cc(-c2cc(-c3nn(-c4nc(C(=O)O)cs4)c(CC4CC4)c3Cc3ccc([SH+](N)[O-])c(F)c3)ccc2F)c1 (configuration not stated) | < 100 nM
32 | N[S+](=O)([O-])c1ccc(Cc2c(-c3ccc(F)c(-c4ccc(F)c(F)c4)c3)nn(-c3nc(C(=O)O)cs3)c2CC2CC2)cc1F | < 100 nM
33 | N[S+](=O)([O-])c1ccc(Cc2c(-c3ccc(F)c(C4=Cc5ccccc5C4)c3)nn(-c3nc(C(=O)O)cs3)c2CC2CC2)cc1F | < 100 nM
34 | N[S+](=O)([O-])c1ccc(Cc2c(-c3ccc(F)c(C4=CCC(F)(F)CC4)c3)nn(-c3nc(C(=O)O)cs3)c2CC2CC2)cc1F | < 100 nM
35 | CC(C)c1ccc(C#Cc2cccc(-c3nn(-c4nc(C(=O)O)cs4)c(CC4CC4)c3Cc3ccc([SH+](N)[O-])c(F)c3)c2)s1 (configuration not stated) | in the range around 550 nM
36 | N[S+](=O)([O-])c1ccc(Cc2c(-c3ccc(F)c(-c4ccc(Cl)cc4)c3)nn(-c3nc(C(=O)O)cs3)c2CC2CC2)cc1F | < 100 nM
37 | Cc1ccc(/C=C/c2cccc(-c3nn(-c4nc(C(=O)O)cs4)c(CC4CC4)c3Cc3ccc([SH+](N)[O-])c(F)c3)c2)s1 (configuration not stated) | < 100 nM
38 | N[S+](=O)([O-])c1ccc(Cc2c(-c3ccc(F)c(C4=CCC(C(F)(F)F)CC4)c3)nn(-c3nc(C(=O)O)cs3)c2CC2CC2)cc1F (configuration not stated) | < 100 nM
39 | N[SH+]([O-])c1ccc(Cc2c(-c3cccc(C#Cc4ccc(C(F)(F)F)s4)c3)nn(-c3nc(C(=O)O)cs3)c2CC2CC2)cc1F (configuration not stated) | in the range around 550 nM
40 | Cc1ccc(C#Cc2cccc(-c3nn(-c4nc(B(O)O)cs4)c(CC4CC4)c3Cc3ccc([SH+](N)[O-])c(F)c3)c2)s1 (configuration not stated) | in the range around 29000 nM
41 | Cc1ccc([C@H]2C[C@@H](c3cccc(-c4nn(-c5nc(C(=O)O)cs5)c(CC5CC5)c4Cc4ccc([SH+](N)[O-])c(F)c4)c3)C2)s1 (some centres not stated) | < 100 nM
42 | N[SH+]([O-])c1ccc(Cc2c(-c3cccc(C#Cc4ccc(Cl)s4)c3)nn(-c3nc(C(=O)O)cs3)c2CC2CC2)cc1F (configuration not stated) | < 100 nM
43 | Cc1cnc(C#Cc2cccc(-c3nn(-c4nc(C(=O)O)cs4)c(CC4CC4)c3Cc3ccc([SH+](N)[O-])c(F)c3)c2)o1 (configuration not stated) | < 100 nM
44 | Cc1cc(C)cc(-c2cc(-c3nn(-c4nc(C(=O)O)cs4)c(CC4CC4)c3Cc3ccc([SH+](N)[O-])c(F)c3)ccc2F)c1 (configuration not stated) | in the range around 550 nM
45 | Cc1ccc(C#Cc2cc(-c3nn(-c4nc(C(=O)O)cs4)c(CCC4CC4)c3Cc3ccc([SH+](N)[O-])c(F)c3)ccc2F)s1 (configuration not stated) | < 100 nM
46 | Cc1ccc(C#Cc2cccc(-c3nn(-c4nc(C(=O)O)cs4)c(CC4CC4)c3Cc3ccc([SH+](N)[O-])c(F)c3)c2)s1 (configuration not stated) | < 100 nM
47 | N[S+](=O)([O-])c1ccc(Cc2c(-c3ccc(F)c(-c4cc(Cl)cc(Cl)c4)c3)nn(-c3nc(C(=O)O)cs3)c2CC2CC2)cc1F | in the range around 550 nM
